In US10179785B2, “Imidazotriazinone or imidazopyrazinone derivatives, and use thereof” (ST PHARM CO., LTD., priority 2014, dated 2019):
Read-outs that look alike come from different tables or passages of the source.

Target: T1, tankyrase 1 (Homo sapiens, UniProt O95271)
T1 construct: purchased Trevigen 4700-096-K
T1 sequence (O95271 1-1327): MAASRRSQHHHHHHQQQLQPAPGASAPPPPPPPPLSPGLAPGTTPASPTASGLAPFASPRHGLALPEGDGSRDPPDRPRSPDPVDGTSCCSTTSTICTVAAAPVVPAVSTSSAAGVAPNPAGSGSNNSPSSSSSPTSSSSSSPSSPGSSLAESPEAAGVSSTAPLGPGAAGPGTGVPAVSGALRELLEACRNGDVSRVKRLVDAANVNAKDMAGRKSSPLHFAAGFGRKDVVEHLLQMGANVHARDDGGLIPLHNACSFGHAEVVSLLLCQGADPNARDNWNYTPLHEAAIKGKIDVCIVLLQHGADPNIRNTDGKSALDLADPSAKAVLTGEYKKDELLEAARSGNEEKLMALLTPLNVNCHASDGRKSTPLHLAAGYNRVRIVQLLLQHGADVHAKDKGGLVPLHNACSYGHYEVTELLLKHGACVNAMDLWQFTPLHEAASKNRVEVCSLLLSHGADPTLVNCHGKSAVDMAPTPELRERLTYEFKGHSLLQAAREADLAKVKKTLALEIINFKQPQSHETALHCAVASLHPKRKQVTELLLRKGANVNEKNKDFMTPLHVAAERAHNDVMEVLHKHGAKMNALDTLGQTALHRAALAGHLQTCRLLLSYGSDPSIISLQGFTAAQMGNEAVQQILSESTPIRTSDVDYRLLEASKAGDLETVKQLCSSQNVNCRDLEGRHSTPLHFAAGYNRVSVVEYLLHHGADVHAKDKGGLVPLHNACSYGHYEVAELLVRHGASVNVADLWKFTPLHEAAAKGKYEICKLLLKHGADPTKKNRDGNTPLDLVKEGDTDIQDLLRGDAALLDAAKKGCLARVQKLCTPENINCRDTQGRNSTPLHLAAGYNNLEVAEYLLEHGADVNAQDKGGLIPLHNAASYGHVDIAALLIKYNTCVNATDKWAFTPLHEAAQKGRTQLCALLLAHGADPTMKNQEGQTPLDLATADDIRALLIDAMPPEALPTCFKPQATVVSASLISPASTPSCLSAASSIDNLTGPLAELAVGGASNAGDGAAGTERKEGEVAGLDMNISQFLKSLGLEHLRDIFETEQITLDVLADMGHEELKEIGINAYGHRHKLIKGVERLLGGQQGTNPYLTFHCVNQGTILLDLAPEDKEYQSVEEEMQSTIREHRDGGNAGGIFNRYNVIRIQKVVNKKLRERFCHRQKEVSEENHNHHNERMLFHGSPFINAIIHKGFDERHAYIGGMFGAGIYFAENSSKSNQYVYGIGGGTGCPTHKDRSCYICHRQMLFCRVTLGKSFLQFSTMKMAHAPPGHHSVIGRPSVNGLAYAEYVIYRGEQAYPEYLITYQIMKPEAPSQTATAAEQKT
Test: Analysis of activity of tankyrase 1 (Trevigen kit, ELISA absorbance at 450 nm)
Assay type: biochemical
Procedure: Activities of novel compounds synthesized according to Examples 1 to 48 against tankyrase 1 were analyzed using a Trevigen kit (Cat. No. 4700-096-K). Poly PAR histone protein-coated 96-well plate, anti-PAR monoclonal antibody and goat anti-mouse IgG-HRP were used for measurement of absorbance by ELISA method. Specifically, 20× I-PAR assay buffer was diluted to 1× by adding water, and 50 μL of the diluted buffer was added to each well of the 96-well plate followed by reacting at rt for 30 min. Then, the supernatant was completely removed from each well and 10 μL of 1× I-PAR assay buffer and 15 μL of assay substrate were added to each well along with 1 μL of a 50× solution of inhibitors to be tested, which were the compounds obtained in the Examples 1 to 48. 10 m Units/μL of tankyrase 1 enzyme was diluted 50-fold with 1× I-PAR assay buffer and 25 μL of the diluted enzyme was added to each well and reacted while stirring at rt for 30 min. One without any compound of the present invention was used as a positive control and another containing 1× I-PAR assay buffer with the same volume instead of tankyrase 1 enzyme was used as a negative control. Upon completion of the reaction, 200 μL of PBSX, which was prepared by adding 0.1% triton X-100 to PBS, was added and removed and this washing process was repeated twice. Washing was repeated twice more using PBS in the same manner. 5× antibody diluent was diluted with distilled water to 1× concentration, 50 μL of the diluted goat anti-mouse IgG-HRP to 1/2000 was added to each well and reacted while stirring at rt for 30 min. Washes were carried out twice using PBSX and PBS, respectively. After addition of 50 μL of TACS-sapphire to each well of the plate, the plate was blocked from light to react for 10 min to 15 min and the color of the reaction solution turned blue. To stop the reaction, 50 μL of 0.2N HCl was added to turn the solution yellow. Finally, the absorbance of the resulting solution was measured at 450 nm.

[1] = Trevigen kit Cat. No. 4700-096-K, reaction at rt for 30 min, read-out: TNKS1 (IC50)

COCCOc1cc(F)c(C2(O)CCN(c3nn4c(C)ncc4c(=O)[nH]3)CC2)c(F)c1 [compound 17, 2-(4-(2,6-Difluoro-4-(2-methoxyethoxy)phenyl)-4-hydroxypiperidin-1-yl)-7-methylimidazo[5,1-f][1,2,4]triazin-4(3H)-one]
IC50 [1]: 67.2 nM

Cc1ncc2c(=O)[nH]c(N3CCN(c4c(F)cc(OC5COC5)cc4F)CC3)nn12 [compound 12, 2-(4-(2,6-Difluoro-4-(oxetan-3-yloxy)phenyl)piperazin-1-yl)-7-methylimidazo[1,5-f][1,2,4]triazin-4(3H)-one]
IC50: 96.3 nM

Cc1ncc2c(=O)[nH]c(N3CCN(c4c(F)cc(OCCN5CCN(C)CC5=O)cc4F)CC3)nn12 [compound 33, 2-(4-(2,6-Difluoro-4-(2-(4-methyl-2-oxopiperazin-1-yl)ethoxy)phenyl)piperazin-1-yl)-7-methylimidazo[1,5-f][1,2,4]triazin-4(3H)-one]
IC50 [1]: 180 nM

Cc1ncc2c(=O)[nH]c(N3CCN(c4c(F)cc(OCc5ccccc5)cc4F)CC3)nn12 [compound 3, 2-(4-(4-(Benzyloxy)-2,6-difluorophenyl)piperazin-1-yl)-7-methylimidazo[1,5-f][1,2,4]triazin-4(3H)-one]
IC50 [1]: 494 nM
